Where two headings read alike, the source gives them in different places.
Tests used:
[1] = test system: DMBA-induced rat mammary carcinomas; assay: Regression of DMBA-induced mammary carcinomas, pair-feeding study; type: in vivo, Wistar-Furth rat; settings: for Time to Regress (wks): primary carcinoma, footnote: Kaplan-Meier estimate of time when 25% regressed
Method: We used Wistar-Furth female rats for in vivo studies. Wistar-Furth female rats were obtained from Harlan Sprague-Dawley, Inc., (Madison, Wis.). All rats, arriving at 43-48 days of age, were housed at four rats per cage in wire-bottom metal cages and all were maintained with a light/dark cycle of 12 hours. Rats were provided Teklad Lab blox chow and acidified water ad libitum.
After one week of acclimation, the carcinogen DMBA was administered to the rats, which were 50-55 days old at this point. The DMBA was dissolved in a stock solution of 20 mg DMBA/ml sesame oil, heated and allowed to cool to room temperature before administration. DMBA (Eastman Kodak, Rochester, N.Y.) was given as a single gastric intubation of 50 mg DMBA/kg rat body weight.
In the pair-feeding study, a group of 70 mammals was treated with DMBA. Beginning four weeks post carcinogen administration, mammals were weighed and palpated weekly. Upon palpation of the first mammary carcinoma (diameter≥3 mm), mammals were randomly assigned to control or 2.5% (w/w) perillyl alcohol diet and pair-fed.
Perillyl alcohol (>96% pure by GC analysis, Aldrich, Milwaukee, Wis.) and Teklad 4% mouse/rat diet meal were thoroughly mixed and stored at -20° C. Fresh diets were made every 7-10 days. All mammals were provided fresh diet daily to minimize evaporation of the monoterpenes. For pair-feeding, the quantity of diet consumed by the monoterpene-fed mammals was measured every 24 hours and the assigned partner was pair-fed accordingly.
In the pair-feeding study, all palpable mammary carcinomas were classified as either "primary" tumors (i.e, the first tumor(s) palpated with a minimum diameter of 3 mm) or "secondary" tumors (i.e. a palpable tumor arising after initial diet assignment). At diet assignment, some mammals had more than one primary tumor. All carcinogen-exposed mammals not bearing a first palpable tumor by week 15 post-carcinogen were removed from the experiment. Complete regression of a tumor was defined as non-palpability for a minimum of three consecutive weeks. All mammals in the pair-feeding study were followed for a minimum of 10 weeks post-diet assignment for tumor growth or regression at primary tumor sites and all other mammary glands. The rats were necropsied if moribund. Complete necropsies were performed on all rats at the termination of the study. Greater than 95% of tumors remaining at the autopsy date were diagnosed as mammary carcinomas based on gross and histopathological criteria.

[2] = Chronic dietary toxicity in rats
NIH3T3 cells = assay: NIH3T3 cell growth inhibition (FIG. 3); type: cell-based, mouse; settings: NIH3T3 (murine) cells
Method: NIH3T3 (mouse embryo) cells were obtained from the American Type Culture Collection and were grown in Dulbecco's modified Eagle's medium supplemented with 10% calf serum. M600B immortalized human mammary epithelial cells (Stampfer, M.R., 1985, J. Tissue Culture Methods 9:107-115) were, obtained from Dr. Martha Stampfer and were grown in supplemented HCDB 170 medium (Hammond, et al. (1984) Proc. Natl. Acad. Sci U.S.A. 81:5435-5439), as described previously (Stampfer, et al. (1985) Proc. Natl. Acad. Sci U.S.A. 82:2394-2398; Eldridge, et al. (1989) Cancer Res. 49:4326-4331).
All cells were maintained in 100-mm dishes at 37° C. in a humidified 5% CO2 atmosphere. Viable cells were distinguished from nonviable cells by counting azure II/methylene blue-stained colonies 10 days after the cells were plated at a density of 100 cells per dish. Trypan blue exclusion was measured by incubating cells for 1 min with one drop of trypan blue per 10 ml of cells. Viable (colorless) and nonviable (blue) cells were then counted on a hemocytometer.
(§1) We examined the effect of several of the terpenes on certain types of cell growth. […] Additionally, growth of HT29 (human colon adenocarcinoma) cells was inhibited by 80% by 1 mM perillyl alcohol.

[3] = test system: CoQ9 and cholesterol synthesis; assay: Mevalonate metabolism: CoQ9 and cholesterol synthesis in NIH3T3 cells; type: cell-based, mouse; settings: for activity at 1000 µM: Mus musculus, NIH3T3, 3 h, average of four experiments ± SD
Method: Analysis of Mevalonate Metabolism. NIH3T3 cells were grown in Dulbecco's modified Eagle's medium supplemented with 10% calf serum. […] The cells were then trypsinized, washed and resuspended in phosphate-buffered saline. The protein concentrations were determined using a bicinchoninic acid protein assay (Shihabi, et al, Ann. Clin. Lab. Sci. 18:235-239, 1988). Samples containing equal amount of protein were spotted on TLC plates with or without acetone extraction (Maziere, et al, J. Biochem. Biophys. Methods 14:267-272, 1987.) The TLC plates were developed with hexane/diethyl ether/acetic acid (70:30:2, v/v) (Maziere, et al, Supra). Dry plates were analyzed for radioactivity using a phosphorimager (Molecular Dynamics).
Labeling Cells with [^14 C(U)] Tyrosine. NIH3T3 cells were treated with 30 μM lovastatin for 18 hours and then incubated in fresh tyrosine deficient minimum essential medium (supplemented with 10% dialyzed fetal bovine serum) containing 400 μM mevalonic acid lactone (Sigma) and 14 μCi/ml [^14 C(U)] tyrosine (500 mCi/mmol) for 3 hours in the absence or presence of 1 mM perillyl alcohol. Cells were harvested and lipids were analyzed as described above.
HPLC Analysis of Unsaponifiable Lipids. Cells were labeled with [2-^14 C] mevalonolactone as described above and then were saponified as described by Popjak et al, J. Lipid Res, 26:831-841, 1985. Unsaponifiable lipids were extracted with petroleum ether, dried and dissolved in chloroform methanol (1:1, v/v). Reverse phase HPLC using a Bio-Rad ODS-5S (25 cm×4 mm) column fitted with a Sigma hypersil ODS guard column was run isocratically with methanol/acetonitrile/water (72.5:22.5:5, v/v) at a flow rate of 0.8 ml/min. The effluent was monitored at 210 nm, the fractions were collected, and radioactivities were determined with a Beckman LS 6000IC Scintillation Counter.

HT29 cells = assay: Inhibition of HT29 colon adenocarcinoma cell growth/proliferation; type: cell-based, human
Method: as §1

[4] = 10% limonene diet or 2.5% POH diet

## C=C(C)[C@@H]1CC=C(CO)CC1 [perillyl alcohol]
[1]; [4]
  Primary carcinoma regression (%): 81%
  Secondary carcinoma regression (%): 0%
  Secondary carcinoma regression (tumors regressed / tumors): 01/1
  Secondary carcinomas/rat: 0.04
[1]; after initial diet assignment
  development of secondary carcinomas: limited the development of secondary carcinomas
[1]
  Time to Regress (wks): 3.6 wks
[1]; listed as POH
  Time to Regress (wks): 3.6 ± 0.3 wks
[1]; to achieve these regression results
  amount of perillyl alcohol needed relative to limonene: 25%
[2]; 0.5% POH diet, chronic
  weight change: very small weight loss followed by weight gain
[2]; 1.0% POH diet, chronic
  weight change: very small weight loss followed by weight gain
[2]; 2.0% POH diet, chronic
  tolerability: tolerated with weight loss followed by weight gain
[2]; 2.5% POH diet, chronic
  tolerability: tolerated with weight loss observed
[2]; 3.0% POH diet, chronic
  death: 2/5
[2]; dietary, data not shown
  maximum dose tolerated (% diet): 2.5%
[2]; perillyl alcohol-fed rats
  Toxicity: limited to weight loss
[2]; perillyl alcohol-fed, FIG. 8
  body weight versus controls: did not achieve weights similar to controls
NIH3T3 cells
  inhibition of cell growth: significantly inhibited cell growth in a dose-dependent manner
[3]; 1 mM perillyl alcohol
  CoQ9 labeled from [14C(U)] tyrosine: greatly reduced
[3]; 1 mM perillyl alcohol, read-out: Cholesterol + Lathosterol synthesis (% of Control)
  activity at 1000 µM: 107 ± 16.5%
[3]; 1 mM perillyl alcohol, read-out: Cholesterol synthesis (% of Control)
  activity at 1000 µM: 26.7 ± 4.7%
[3]; 1 mM perillyl alcohol, read-out: CoQ9 synthesis (% of Control)
  activity at 1000 µM: 14.1 ± 4.6%
[3]; 1 mM perillyl alcohol, read-out: Lathosterol synthesis (% of Control)
  activity at 1000 µM: 427 ± 130%
[3]; cold control medium up to 6 hours post-labeling
  recovery of labeled CoQ9: labeled CoQ9 could not be observed
[3]; continually grown in 1 mM perillyl alcohol
  block of cholesterol synthesis on continued exposure: maintained the block of cholesterol synthesis
[3]; reincubated in 1 mM perillyl alcohol after control medium
  conversion of labeled cholesterol back to lathosterol: did not convert labeled cholesterol back to labeled lathosterol
[3]; spot X = CoQ9, Y = cholesterol, Z = lathosterol
  neutral lipid metabolism changes in treated cells: inhibition of two spots (X and Y) and the increased accumulation of a third spot (Z)
[3]; spot Y = cholesterol, spot Z = lathosterol
  neutral lipid changes after [14C]squalene labeling: inhibition of spot Y and the accumulation of spot Z
[3]; switched to control medium, 3 hour chase
  reversibility of block of cholesterol synthesis: Lathosterol was observed to be converted to cholesterol
HT29 cells; 1 = greatest inhibition, 5 = least inhibition
  Rank order, inhibition of HT-29 tumor cell proliferation: 1
HT29 cells; Homo sapiens, HT-29, read-out: IC50 HT29 tumor cell proliferation
  IC50: 50 µM
HT29 cells; Homo sapiens, HT-29, read-out: growth inhibition of HT29 cells
  inhibition at 1000 µM: 80%
HT29 cells; colon adenocarcinoma cells
  HT29 cell growth: regression of cell growth
